Assay results from PubChem BioAssay (NCI).
“And” between values parts separate entries of the source, which are not always exact repeats. Identical values can stand only once.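 1) Cells in 96-well plates. 2) Compound, 48 h, 5 concentrations. 3) Linear interpolation between surrounding doses. 4) Unreached endpoint = highest concentration. The concentration for 50% growth inhibition is given as GI50. Definition used: TGI = concentration required for complete inhibition of growth.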 Starred links: 1 amine or outer side, 2 acyl side, 3 side chain; linkers in the order of their positions; H or OH if unused. Positions of bridges follow the written chain, without caps; N, C: chain ends. Non-standard residues stand in square brackets, D forms with d. Residues, ends and D or L forms follow the SMILES beside them. Chains are numbered I, II in the order given. Actinocin(9to1) = Cc1c2oc3c(C)ccc(C(=O)[*:1])c3nc-2c(C(=O)[*:2])c(N)c1=O; NMeY = CN[CH](Cc1ccc(O)cc1)C(=O)O; Sar = CNCC(=O)O

Tests used:
Assay in all cases: NCI tumour cell line growth inhibition, 48 h
[1] = system: DU-145 prostate
[2] = system: HCT-116 colon
[3] = system: KM12 colon
[4] = system: MOLT-4 leukemia
[5] = system: NCI-H226 lung
[6] = system: NCI-H23 lung
[7] = system: NCI/ADR-RES ovarian
[8] = system: SF-295 CNS
[9] = system: SF-539 CNS
[10] = system: SN12C renal

In the case of `Cc1c2oc3c(C)ccc(C(=O)NC4C(=O)NC(C(C)C)C(=O)N5CCCC5C(=O)N(C)CC(=O)N(C)C(Cc5ccc(O)cc5)C(=O)OC4C)c3nc-2c(C(=O)NC2C(=O)NC(C(C)C)C(=O)N3CCCC3C(=O)N(C)CC(=O)N(C)C(Cc3ccc(O)cc3)C(=O)OC2C)c(N)c1=O` (configuration not stated) (I: TVP[Sar][NMeY] / II: TVP[Sar][NMeY]; ester I:1-I:C, II:1-II:C; linker I:N-II:N via Actinocin(9to1); configuration not given here), the GI50 [1] is reported as 0.0687 µM and 0.0302 µM, the TGI [1] is reported as over 1 µM and the GI50 [2] is reported as 0.00553 µM and 0.00136 µM. The TGI [2] was over 1 µM, the TGI [3] was 0.536 µM and > 1 µM and the GI50 [4] was 0.00426 µM and 0.00176 µM. The TGI [5] was over 0.539 µM, the GI50 [6] was 0.0493 µM and 0.0128 µM and the TGI [6] was 0.287 µM and 0.0772 µM. The GI50 [7] was 0.494 µM, the TGI [7] was over 1 µM and the GI50 [8] was 0.0438 µM and 0.0157 µM. For the same compound, the TGI [8] was over 1 µM, the TGI [9] was 0.224 µM and 0.152 µM and the TGI [10] was over 1 µM.

`Cc1ccc(C2SCC(=O)N2c2ccc(-n3c(-c4ccccc4)nc4ccccc4c3=O)cc2)cc1` (configuration not stated) was tested, and the TGI [1] was over 100 µM, the TGI [2] was 23.1 µM and the TGI [3] was over 100 µM. It also gave a TGI [4] of over 100 µM, a TGI [5] of 57.3 µM and a TGI [6] of over 100 µM. The TGI [7] was 63.1 µM, the TGI [8] was 44.7 µM and the TGI [9] was 39.6 µM. The TGI [10] was over 100 µM.

With `Cc1ccnc2[nH]c(-c3ccc4ccccc4c3)cc(=O)c12` the TGI [1] was 35.1 µM, the GI50 [2] was 0.428 µM and the TGI [2] was 2.31 µM. The TGI [3] was 20.6 µM, the TGI [4] was over 100 µM and the TGI [5] was 11.4 µM. For the same compound, the TGI [6] was 15.3 µM, the TGI [7] was 7.14 µM and the GI50 [8] was 1.49 µM. It also gave a TGI [8] of 10.9 µM, a TGI [9] of 6.79 µM and a TGI [10] of 18.7 µM.

Compound `BrC1=C(Br)C2(SCCS2)[C@H]2C[C@@H]1c1ccccc12` has a TGI [1] of over 100 µM, a TGI [2] of over 100 µM and a TGI [3] of over 100 µM. For the same compound, the TGI [4] was over 100 µM, the TGI [5] was over 100 µM and the TGI [6] was over 100 µM. For the same compound, the TGI [7] was over 100 µM, the TGI [8] was over 100 µM and the TGI [9] was over 100 µM. The TGI [10] was over 100 µM.

Compound `O=c1[nH]nnc2c1sc1ncccc12` has a TGI [1] of over 100 µM, a TGI [2] of over 100 µM and a TGI [3] of over 100 µM. It also gave a TGI [4] of over 100 µM, a TGI [5] of over 100 µM and a TGI [6] of over 100 µM. The TGI [7] was over 100 µM, the TGI [8] was over 100 µM and the TGI [9] was over 100 µM. The TGI [10] was over 100 µM.

`Cc1ccc(S(=O)(=O)c2[nH]cc(/C(=C\C3CCCCC3)[N+](=O)[O-])c2C2CCCCC2)cc1` was tested, and the TGI [1] was 1.49 µM, the TGI [2] was 0.468 µM and the TGI [3] was 4.1 µM. For the same compound, the TGI [4] was 0.94 µM, the TGI [5] was 9.9 µM and the TGI [6] was 3.1 µM. For the same compound, the TGI [7] was 19.9 µM, the TGI [8] was over 20.6 µM and the TGI [9] was 2.46 µM. It also gave a TGI [10] of 0.49 µM.

For `CN1C(=O)c2ccccc2OC12C=Cc1c(ccc3ccccc13)O2` (configuration not stated), the TGI [1] was over 45 µM, the TGI [2] was 14.2 µM and the TGI [3] was 8.64 µM. For the same compound, the TGI [4] was 17.2 µM, the TGI [5] was 48.6 µM and the TGI [6] was 16 µM. For the same compound, the TGI [7] was 6.79 µM, the TGI [8] was 12.7 µM and the TGI [9] was 50.4 µM. The TGI [10] was over 57.1 µM.

Compound `Cc1[nH]c(=O)nc2nc3ccc(Cl)cc3c(NCCNCCO)c12` has a TGI [1] of 29.4 µM, a TGI [2] of 18.5 µM and a TGI [3] of 23 µM. It also gave a TGI [4] of over 100 µM, a TGI [5] of 29.8 µM and a TGI [6] of 21.5 µM. It also gave a TGI [7] of 42.3 µM, a TGI [8] of 30.2 µM and a TGI [9] of 20.6 µM. The TGI [10] was 19.8 µM.

With `COc1cccc(C(=O)Oc2ccc(OS(=O)(=O)c3ccc(C)cc3)cc2)c1C#N` the TGI [1] was over 100 µM, the TGI [2] was over 100 µM and the TGI [3] was over 100 µM. For the same compound, the TGI [4] was over 100 µM, the TGI [5] was over 100 µM and the TGI [6] was over 100 µM. The TGI [7] was over 100 µM, the TGI [8] was over 100 µM and the TGI [9] was over 100 µM. For the same compound, the TGI [10] was over 100 µM.

Work on `CC1(C)OC(C(=O)Nc2cc3c4ccccc4ccc3c3ccccc23)C(C(=O)N2CCCCC2)O1` (configuration not stated) yielded a TGI [1] of over 100 µM, a TGI [2] of over 100 µM and a TGI [3] of over 100 µM. For the same compound, the TGI [4] was over 23.9 µM, the TGI [5] was over 100 µM and the TGI [6] was over 100 µM. The TGI [7] was over 100 µM, the TGI [8] was over 100 µM and the TGI [9] was over 100 µM. For the same compound, the TGI [10] was over 100 µM.

With `COC(=O)C1=C(C(=O)OC)N(c2ccc(OC)cc2[N+](=O)[O-])C(c2ccc(C)cc2)=CC1c1ccc(OC)cc1OC` (configuration not stated) the TGI [1] was over 100 µM, the TGI [2] was over 100 µM and the TGI [3] was 25.7 µM. For the same compound, the TGI [4] was 55.2 µM, the TGI [5] was 49.9 µM and the TGI [6] was over 100 µM. The TGI [7] was over 77.8 µM, the TGI [8] was over 100 µM and the TGI [9] was 20.8 µM. The TGI [10] was 26.5 µM.

In the case of `C=CCCON(C(=O)OC(C)(C)C)C(C)(C)C`, the TGI [1] is reported as over 100 µM, the TGI [2] is reported as over 100 µM and the TGI [3] is reported as over 100 µM. For the same compound, the TGI [4] was over 100 µM, the TGI [5] was over 100 µM and the TGI [6] was over 100 µM. The TGI [7] was over 100 µM, the TGI [8] was over 100 µM and the TGI [9] was over 100 µM. The TGI [10] was over 100 µM.

Compound `CO/N=C(\C)c1ccc(Nc2nc3ccccc3c3occc23)cc1` has a TGI [1] of 29.7 µM, a TGI [2] of 27.9 µM and a TGI [3] of 36.4 µM. The TGI [4] was 53.1 µM, the TGI [5] was 24 µM and the TGI [6] was 28.9 µM. For the same compound, the TGI [7] was 32.1 µM, the TGI [8] was 31.5 µM and the TGI [9] was 27.5 µM. It also gave a TGI [10] of 28.9 µM.

`O=S(=O)(O)CCCc1cccc2ccccc12` was tested, and the TGI [1] was over 100 µM, the TGI [2] was over 100 µM and the TGI [3] was over 100 µM. For the same compound, the TGI [4] was over 100 µM, the TGI [5] was over 100 µM and the TGI [6] was over 100 µM. It also gave a TGI [7] of over 100 µM, a TGI [8] of over 100 µM and a TGI [9] of over 100 µM. The TGI [10] was over 100 µM.

`Cc1ccc(/C=N/Nc2cc(C)c3cccc(C)c3n2)s1` was tested, and the TGI [1] was over 100 µM, the TGI [2] was 12.4 µM and the TGI [3] was 23.7 µM. For the same compound, the TGI [4] was 47.7 µM, the TGI [5] was 37.5 µM and the TGI [6] was 35.2 µM. It also gave a TGI [7] of 22.5 µM, a TGI [8] of 21.8 µM and a TGI [9] of 41.1 µM. For the same compound, the TGI [10] was 25.1 µM.

Work on `CCCC(=O)NC(NC1CCCCC1)(C(=O)OCC)C(F)(F)F` (configuration not stated) yielded a TGI [1] of over 100 µM, a TGI [2] of over 100 µM and a TGI [3] of over 100 µM. It also gave a TGI [4] of over 100 µM, a TGI [5] of over 100 µM and a TGI [6] of over 100 µM. For the same compound, the TGI [7] was over 100 µM, the TGI [8] was over 100 µM and the TGI [9] was over 100 µM. For the same compound, the TGI [10] was over 100 µM.

With `CC(C)(C)OC(=O)N(CCCCN(CCCNC(=O)C(F)(F)F)C(=O)OC(C)(C)C)CCCNC(=O)C(F)(F)F` the TGI [1] was over 100 µM, the TGI [2] was over 100 µM and the TGI [3] was over 100 µM. The TGI [4] was over 100 µM, the TGI [5] was over 100 µM and the TGI [6] was over 100 µM. The TGI [7] was over 100 µM, the TGI [8] was over 100 µM and the TGI [9] was over 100 µM. It also gave a TGI [10] of over 100 µM.
